Reference: patent US12121500B2, “Inhibitors of Bunyaviridae and uses thereof” (priority 2020, dated 2024)
pEC50, pIC50: −log10 of the molar value. In brackets after ≈: the same amount, converted by molar mass. Read-outs that look alike come from different tables or passages of the source.

Assays:
RVFV strain MP12 = assay: microbe, parasite or virus in culture; type: cell-based, Rift Valley Fever Virus; conditions: for pEC50: Rift Valley fever virus, Vero, read-out: Estimated EC50
RVFV [1] = assay: microbe, parasite or virus in culture; type: cell-based, Rift Valley Fever Virus; conditions: for EC50: Rift Valley fever virus, Vero, 24 h, read-out: RVFV (EC50, μM)
human ribonuclease H1 = target: T1, human ribonuclease H1 (Homo sapiens, UniProt O60930); assay: biochemical; type: biochemical
T1 construct: made in house; host or cells: E. coli
T1 sequence (O60930 1-286): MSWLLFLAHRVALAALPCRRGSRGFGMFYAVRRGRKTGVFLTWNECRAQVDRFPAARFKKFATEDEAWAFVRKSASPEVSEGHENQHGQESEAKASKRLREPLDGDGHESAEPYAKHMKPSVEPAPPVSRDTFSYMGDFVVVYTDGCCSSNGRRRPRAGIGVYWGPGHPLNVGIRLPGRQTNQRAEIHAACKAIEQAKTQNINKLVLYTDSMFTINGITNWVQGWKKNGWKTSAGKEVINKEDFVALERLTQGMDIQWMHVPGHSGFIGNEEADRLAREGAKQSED

C. neoformans = assay: Inhibition of C. neoformans growth, limiting dilution assay; type: cell-based, Cryptococcus neoformans; conditions: Cryptococcus neoformans
in vitro [2] = conditions: African green monkey
[3] = Quantitative cytotoxicity in Vero cells, crystal violet staining of EC50 plates; conditions: African green monkey
Staphylococcus spp. = assay: Inhibition of Staphylococcus spp. growth, broth microdilution; type: cell-based, S. saprophyticus or S. aureus; conditions: Staphylococcus; 16-24 hours, Mueller-Hinton broth; — = no measurable MIC80
RVFV [4] = assay: microbe, parasite or virus in culture; type: cell-based, Rift Valley Fever Virus; conditions: Rift Valley fever virus, A549, 24 h
in vitro [5] = conditions: human
[6] = Cytotoxicity in HepDES19 cells, MTS assay; conditions: human
Escherichia coli = assay: Inhibition of Escherichia coli growth, broth microdilution; type: cell-based; conditions: Escherichia coli; 16-24 hours, Mueller-Hinton broth; — = inactive; read-out: E. coli (MIC80)
[7] = 48 hours at 35° C., YNB-02, read-out: C. neoformans (MIC80)
[8] = HepDES19 cells (HepG2-derived hepatoblastoma cell line)
[9] = 48 h, read-out: C. neoformans (MIC80, μM)

Compound | pEC50 (RVFV strain MP12) | EC50 (RVFV [1]) | pIC50 (human ribonuclease H1) | MIC80 (C. neoformans; [7]) | CC50 (in vitro [2]) | CC50 at 1 day [3] | CC50 at 3 days [6, 8] | other results
O=C(O)CC(=O)CC(=O)c1cccs1 [Compound 129, reference compound] | ≤ 3.92 | – | – | – | – | – | – | –
Cc1ccc(O)c(=O)c(O)c1 [Compound 210] | 5.10 | 14.6 µM | 4.07 | 15 µM (≈ 2.28 µg/mL) | ≥ 120 µM | 283 µM | – | –
Cc1cc(O)c(=O)c(O)cc1C(=O)C1CCCCC1 [Compound 120] | – | 15.6 µM | 4.09 | 12 µM (≈ 3.15 µg/mL) | – | > 250 µM | – | –
CC(=O)c1c(C)cc(O)c(=O)c(O)c1-c1cccc2ccccc12 [Compound 331] | 5.70 | 15.8 µM | 3.35 | 11 µM (≈ 3.52 µg/mL) | – | 80.4 µM | 36.6 µM | MIC80 (Staphylococcus spp.): 67 µM (≈ 21.5 µg/mL); pEC50 (RVFV [4]): 4.75; CC50 (in vitro [5]): ≥ 120 µM
Cc1cc(O)c(=O)c(O)cc1C(=O)N1CCCCC1 [Compound 390] | 7.00 | 11.9 µM | 3.97 | 11 µM (≈ 2.9 µg/mL) | – | > 250 µM | 29.8 µM | activity against RVFV in the primary screen, in words (RVFV strain MP12): active; pEC50 (RVFV [4]): 5.03; CC50 (in vitro [5]): ≥ 120 µM
Cc1cc(O)c(=O)c(O)cc1S(=O)(=O)c1ccccc1 [Compound 336] | 5.52 | 9 µM | – | 50 µM (≈ 14.6 µg/mL) | – | 65.8 µM | – | pIC50 (human ribonuclease H1; read-out: Human RNaseH1 (IC50)): 4.07
Cc1ccc(CNC(=O)c2cc(O)c(=O)c(O)cc2C)c(C)c1 [Compound 809] | 4.77 | – | – | – | 64 µM | – | – | –
Cc1cc(O)c(=O)c(O)cc1C(=O)NCc1ccc(N2CCCC2)cc1 [Compound 1019] | 4.72 | – | – | – | ≥ 120 µM | – | – | –
C/C(=N\c1ccccc1F)c1c(C)cc(=O)n(O)c1O [Compound 516] | 4.72 | – | – | – | ≥ 120 µM | – | – | –
C/C(=N\c1ccc(C(F)(F)F)cc1)c1c(C)cc(=O)n(O)c1O [Compound 517] | 4.89 | > 120 µM | 3.87 | 24 µM (≈ 7.83 µg/mL) | ≥ 120 µM | > 120 µM | 91 µM | pEC50 (RVFV [4]): 4.02; CC50 (in vitro [5]): 71.8 µM
CSc1cccc(O)c(=O)c1O [Compound 385] | – | 25.2 µM | 3.75 | 24 µM (≈ 4.42 µg/mL) | – | > 250 µM | > 100 µM | –
CCCCNC(=O)c1cc(O)c(=O)c(O)cc1C [Compound 1039] | 5.22 | 8.9 µM | – | 12 µM (≈ 3.02 µg/mL) | ≥ 120 µM | > 120 µM | – | pEC50 (RVFV [4]): 4.81; CC50 (in vitro [5]): ≥ 120 µM
O=c1c(O)c(-c2ccc(O)c(O)c2)oc2cc(O)c(O)c(O)c12 [Compound 7, Quercetagetin, reference compound] | ≤ 3.92 | – | – | – | – | – | – | –
C/C(=N\c1ccccc1Cl)c1c(C)cc(O)n(O)c1=O [Compound 668] | 4.96 | 14 to 20 µM | 3.78 | – | ≥ 120 µM | > 120 µM | 76.8 µM | pEC50 (RVFV [1]; read-out: RVFV (EC50)): 4.72; pEC50 (RVFV [4]): 4.45; CC50 (in vitro [5]): 82 µM
CC1=CC(O)N(O)C(O)=C1/C(C)=N/c1ccccc1N (stereo not shown) [Compound 208] | 4.85 | > 120 µM | 3.71 | – | ≥ 120 µM | > 250 µM | – | MIC80 (C. neoformans; [9]): 30 µM (≈ 8.26 µg/mL); CC50 at 3 days [6]: 14.4 µM
COC(=O)c1c(C)cc(O)c(=O)c(O)c1Br [Compound 335] | 5.52 | 40.8 µM | 3.95 | – | – | > 120 µM | – | MIC80 (C. neoformans; [9]): 50 µM (≈ 14.5 µg/mL); pEC50 (RVFV [4]): ≤ 3.92; CC50 (in vitro [5]): 96.2 µM
Cc1cc(O)c(=O)c(O)cc1C(=O)c1ccc(-c2ccccc2)cc1 [Compound 118] | – | 11 µM | < 3.30 | 15 µM (≈ 4.99 µg/mL) | – | 248 µM | – | –
CCCCCCSc1cccc(O)c(=O)c1O [Compound 840] | 4.85 | 31.6 µM | 4.14 | 1 µM (≈ 0.254 µg/mL) | ≥ 120 µM | > 120 µM | 21.5 µM | pEC50 (RVFV [4]): 4.81; CC50 (in vitro [5]): ≥ 120 µM
Cc1ccc(Sc2cccc(O)c(=O)c2O)cc1 [Compound 838] | 5.10 | 12.7 µM | 4.00 | 1 µM (≈ 0.26 µg/mL) | 86 µM | > 300 µM | 18.6 µM | –
CC(=O)c1c(C)cc(O)c(=O)c(O)c1Br [Compound 320] | 5.70 | 20.1 µM | 4.43 | 49 µM (≈ 13.4 µg/mL) | – | > 120 µM | 49.5 µM | pEC50 (RVFV [4]): 4.04; CC50 (in vitro [5]): ≥ 120 µM
O=c1c(O)ccc(-c2ccco2)cc1O [Compound 265] | – | 15.4 µM | 4.24 | 11 µM (≈ 2.25 µg/mL) | – | > 250 µM | – | MIC80 (Staphylococcus spp.): 30 µM (≈ 6.13 µg/mL)

Compound | pEC50 (RVFV strain MP12) | EC50 (RVFV [1]) | pIC50 (human ribonuclease H1) | MIC80 (C. neoformans; [7]) | CC50 (in vitro [2]) | CC50 at 1 day [3] | CC50 at 3 days [6, 8] | other results
Cc1cc(O)c(=O)c(O)cc1C(=O)NCc1ccc(-c2ccccc2)cc1 [Compound 539] | 5.00 | 18.6 µM | 3.98 | 4.5 µM (≈ 1.63 µg/mL) | 71 µM | > 300 µM | 3.6 µM | MIC80 (Staphylococcus spp.): 38 µM (≈ 13.7 µg/mL)
Cc1cc(O)c(=O)c(O)cc1-c1ccc(-c2cccc3ccccc23)cc1 [Compound 234] | 4.72 | – | – | – | ≥ 120 µM | – | – | –
COC(=O)c1c(C)cc(O)c(=O)c(O)c1O [Compound 196] | – | 23.9 µM | 3.39 | – | – | > 250 µM | 6 µM | MIC80 (Staphylococcus spp.): 67 µM (≈ 15.2 µg/mL)
COc1ccc(CO/N=C(\C)c2c[nH]c(=O)[nH]c2=O)cc1 [Compound 522] | ≤ 3.92 | – | – | – | 1 µM | – | – | –
CC(C)c1ccc(O)c(=O)cc1 [Compound 48, γ-thujaplicin, reference compound] | ≤ 3.92 | – | – | – | – | – | – | activity against RVFV in the primary screen, in words (RVFV strain MP12): inactive
NC(=O)c1c(N)sc2c1CCCCC2 [Compound 22, reference compound] | ≤ 3.92 | – | – | – | – | – | – | –
CC(=O)c1c(C)cc(O)c(=O)c(O)c1Cl [Compound 368] | – | 25.4 µM | 3.94 | 24 µM (≈ 5.49 µg/mL) | – | > 250 µM | 31 µM | –
Cc1cc(O)c(=O)c(O)cc1-c1ccccc1 [Compound 113] | – | 10.3 µM | 3.76 | 24 µM (≈ 5.48 µg/mL) | – | > 250 µM | – | –
C/C(=N\c1cccc(Oc2ccccc2)c1)c1c(C)cc(=O)n(O)c1O [Compound 515] | 4.85 | 24.3 µM | 3.21 | 11 µM (≈ 3.85 µg/mL) | ≥ 120 µM | > 120 µM | 71.3 µM | pEC50 (RVFV [4]): ≤ 3.92; CC50 (in vitro [5]): 93.6 µM
O=C1C=CC(=O)c2ccccc21 [Compound 327] | 5.70 | 39.7 µM | 4.33 | 9.1 µM (≈ 1.44 µg/mL) | – | 42.9 µM | 18.5 µM | pEC50 (RVFV [4]): 4.71; CC50 (in vitro [5]): 27.5 µM
CC(=O)c1c(C)cc(O)c(=O)c(O)c1-c1ccccc1 [Compound 330] | 5.70 | 9.5 µM | 3.32 | 4 µM (≈ 1.08 µg/mL) | – | > 300 µM | 56.2 µM | MIC80 (Staphylococcus spp.): 44 µM (≈ 11.9 µg/mL); pEC50 (RVFV [4]): 4.37; CC50 (in vitro [5]): ≥ 120 µM
CC(C)c1ccc(O)c(=O)c(O)c1 [Compound 46, β-thujaplicinol] | – | 13.8 µM | – | 8 µM (≈ 1.44 µg/mL) | – | > 250 µM | – | MIC80 (Staphylococcus spp.): 20 µM (≈ 3.6 µg/mL); MIC80 (Escherichia coli): 44 µM (≈ 7.93 µg/mL)
CCOC(=O)c1sc(NC(=O)CSc2nnc(Cc3ccccc3)o2)c(C#N)c1C [Compound 6, reference compound] | ≤ 3.92 | – | – | – | – | – | – | –
Cc1cc(O)c(=O)c(O)cc1C(=O)N1CCN(C(=O)C2COc3ccccc3O2)CC1 (stereo not shown) [Compound 876] | – | – | – | – | ≥ 120 µM | – | – | –
Cc1cc(O)c(=O)c(O)cc1C(=O)Nc1cccc(OCc2ccccc2)c1 [Compound 836] | 4.89 | – | – | – | ≥ 120 µM | – | – | –
COc1ccc(Cl)cc1C(=O)Sc1cccccc1=O [Compound 681] | ≤ 3.92 | – | – | – | 2 µM | – | – | –
CC(C)c1cccc(=O)c(O)c1 [Compound 47, β-thujaplicin, reference compound] | ≤ 3.92 | – | – | – | – | – | – | activity against RVFV in the primary screen, in words (RVFV strain MP12): inactive
Cc1cc(O)c(=O)c(O)cc1C(=O)c1ccc(Br)cc1 [Compound 358] | – | 9 µM | 4.37 | 11 µM (≈ 3.69 µg/mL) | – | > 250 µM | 12.5 µM | MIC80 (Escherichia coli): 20 µM (≈ 6.7 µg/mL)
Cc1cc(O)c(=O)c(O)cc1C(=O)N1CCN(c2ccc([N+](=O)[O-])c3nonc23)CC1 [Compound 920] | 4.72 | – | – | – | ≥ 120 µM | – | – | –
Cc1cc(O)c(=O)c(O)cc1C(=O)c1ccccc1 [Compound 111] | – | 19 µM | 4.32 | 36 µM (≈ 9.23 µg/mL) | – | > 250 µM | – | –
O=C1c2ccccc2C(=O)N1O [Compound 138, reference compound] | ≤ 3.92 | – | – | – | – | – | – | –
